Results on seven molecules are retold here after patent US20250325677A1, “STAT6 DEGRADERS” (Gilead Sciences, Inc., priority 2024, published 2025).

As a reminder, the DC50 is the concentration giving 50% degradation. For orientation: Emax means the maximal effect, on the per cent scale that the assay sets.

Structures are written as SMILES.

Sequence of STAT6 (P42226 whole entry): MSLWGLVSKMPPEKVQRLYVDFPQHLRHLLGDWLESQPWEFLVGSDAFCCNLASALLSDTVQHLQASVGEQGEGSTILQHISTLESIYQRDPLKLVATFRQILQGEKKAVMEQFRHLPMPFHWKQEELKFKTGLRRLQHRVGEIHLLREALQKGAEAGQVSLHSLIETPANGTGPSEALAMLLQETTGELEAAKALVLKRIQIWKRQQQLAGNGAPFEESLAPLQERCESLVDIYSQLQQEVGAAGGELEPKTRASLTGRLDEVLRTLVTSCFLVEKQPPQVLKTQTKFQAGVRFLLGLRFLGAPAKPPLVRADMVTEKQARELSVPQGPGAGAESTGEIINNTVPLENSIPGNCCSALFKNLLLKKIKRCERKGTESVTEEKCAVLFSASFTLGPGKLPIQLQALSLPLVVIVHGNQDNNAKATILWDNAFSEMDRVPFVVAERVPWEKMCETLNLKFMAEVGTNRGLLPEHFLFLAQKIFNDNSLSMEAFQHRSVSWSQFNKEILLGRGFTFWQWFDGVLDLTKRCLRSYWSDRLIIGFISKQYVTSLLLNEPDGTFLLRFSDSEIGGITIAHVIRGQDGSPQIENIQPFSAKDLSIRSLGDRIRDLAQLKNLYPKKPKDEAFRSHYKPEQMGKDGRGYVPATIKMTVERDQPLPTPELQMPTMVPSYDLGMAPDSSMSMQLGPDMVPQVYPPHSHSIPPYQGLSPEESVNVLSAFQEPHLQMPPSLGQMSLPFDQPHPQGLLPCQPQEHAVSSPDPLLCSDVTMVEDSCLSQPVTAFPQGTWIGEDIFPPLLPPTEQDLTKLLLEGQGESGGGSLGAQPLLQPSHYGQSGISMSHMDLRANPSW

One experiment addresses STAT6 (Homo sapiens (Human), UniProt P42226). The experiment in a line: STAT6 degrader assay (HiBiT, HeLa LgBiT clone 4.14). The experiment is classed as cell-based. The note with it: HeLa LgBiT clone 4.14, 4-24 h; geometric mean; given for compounds with >80% Emax; read-out: STAT6 degradation DC50. The method in brief: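 DC50 (nM) comes from luminescence of non-degraded STAT6 read 0.5 h after Nano-GLO addition, following 4-24 h compound exposure at 37° C. Cells were HeLa clone 4.14 expressing LgBiT with a CRISPR HiBiT tag on endogenous STAT6; 50 μM terfenadine set full degradation.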
On the technique in general: HiBiT is a short tag that completes a luciferase, so light tracks the accessible tagged protein.
For `Cn1c(CN2CCC(c3ccc(C(=O)N4CCC(CCn5cc(-c6ccc7c(c6)n(C)c(=O)n7C6CCC(=O)NC6=O)cn5)CC4)cc3)CC2)cc2c(-c3ccc4[nH]ncc4c3)ccnc21` (stereo not shown) [Example 3l4, 3-(5-(1-(2-(1-(4-(1-((4-(1H-indazol-5-yl)-1-methyl-1H-pyrrolo[2,3-b]pyridin-2-yl)methyl)-piperidin-4-yl)benzoyl)piperidin-4-yl)ethyl)-1H-pyrazol-4-yl)-3-methyl-2-oxo-2,3-dihydro-1H-benzo[d]imidazol-1-yl)piperidine-2,6-dione], the DC50 worked out at 2.6 nM. `Cn1c(CN2CCC(c3ccc(C(=O)N4CCC(CN5CCN(c6ccc7c(c6)n(C)c(=O)n7C6CCC(=O)NC6=O)CC5)CC4)cc3)CC2)cc2c(-c3ccc4[nH]ncc4c3)ccnc21` (stereo not shown) [Example 3m2, 3-(5-(4-((1-(4-(1-((4-(1H-indazol-5-yl)-1-methyl-1H-pyrrolo[2,3-b]pyridin-2-yl)methyl)-piperidin-4-yl)benzoyl)piperidin-4-yl)methyl)piperazin-1-yl)-3-methyl-2-oxo-2,3-dihydro-1H-benzo[d]imidazol-1-yl)piperidine-2,6-dione]: the DC50 turned out to be 1.8 nM.

In the case of `COCc1nc2cc(-c3ccnc4c3cc(CN3CCC(c5ccc(C(=O)N6CCC(CN7CCN(Cc8ccc9c(c8)oc(=O)n9C8CCC(=O)NC8=O)CC7)CC6)cc5)CC3)n4C)ccc2[nH]1` (stereo not shown) [Example 3n2, 3-(6-((4-((1-(4-(1-((4-(2-(methoxymethyl)-1H-benzo[d]imidazol-5-yl)-1-methyl-1H-pyrrolo[2,3-b]pyridin-2-yl)methyl)piperidin-4-yl)benzoyl)piperidin-4-yl)methyl)piperazin-1-yl)methyl)-2-oxobenzo[d]-oxazol-3 (2H)-yl)piperidine-2,6-dione], the DC50 stood at 1.1 nM. Take `CN(C(=O)c1ccc(C2CCN(Cc3cc4c(-c5ccc(N)nc5)ccnc4n3C)CC2)cc1)c1ccc(C2CCN(Cc3ccc4c(c3)oc(=O)n4C3CCC(=O)NC3=O)CC2)cc1` (stereo not shown) [Example 3n3, 4-(1-((4-(6-aminopyridin-3-yl)-1-methyl-1H-pyrrolo[2,3-b]pyridin-2-yl)methyl)piperidin-4-yl)-N-(4-(1-((3-(2,6-dioxopiperidin-3-yl)-2-oxo-2,3-dihydrobenzo[d]oxazol-6-yl)methyl)piperidin-4-yl)phenyl)-N-methylbenzamide]: the DC50 came out at 0.1 nM.

The same experiment, now with this note: HeLa LgBiT clone 4.14, 4-24 h; read-out: STAT6 degradation Emax (%).
Regarding `Cn1c(CN2CCC(c3ccc(C(=O)N4CCC(Cn5cc(-c6ccc7c(c6)n(C)c(=O)n7C6CCC(=O)NC6=O)cn5)CC4)cc3)CC2)cc2c(-c3ccc4[nH]ncc4c3)ccnc21` (stereo not shown) [Example 3l3, 3-(5-(1-((1-(4-(1-((4-(1H-indazol-5-yl)-1-methyl-1H-pyrrolo[2,3-b]pyridin-2-yl)methyl)piperidin-4-yl)benzoyl)piperidin-4-yl)methyl)-1H-pyrazol-4-yl)-3-methyl-2-oxo-2,3-dihydro-1H-benzo[d]imidazol-1-yl)piperidine-2,6-dione], the Emax is 30 to 40%.

Regarding `Cn1c(CN2CCC(c3ccc(C(=O)N4CCC(CN5CCN(c6ccc7c(c6)n(C)c(=O)n7C6CCC(=O)NC6=O)CC5)CC4)cc3)CC2)cc2c(-c3ccc(N)nc3)ccnc21` (stereo not shown) [Example 3m1, 3-(5-(4-((1-(4-(1-((4-(6-aminopyridin-3-yl)-1-methyl-1H-pyrrolo[2,3-b]pyridin-2-yl)methyl)-piperidin-4-yl)benzoyl)piperidin-4-yl)methyl)piperazin-1-yl)-3-methyl-2-oxo-2,3-dihydro-1H-benzo[d]imidazol-1-yl)piperidine-2,6-dione], the Emax fell in the range of 40 to 50%.

As to `Cn1c(CN2CCC(c3ccc(C(=O)N4CCC(CN5CCN(Cc6ccc7c(c6)oc(=O)n7C6CCC(=O)NC6=O)CC5)CC4)cc3)CC2)cc2c(-c3ccc(N)nc3)ccnc21` (stereo not shown) [Example 3n1, 3-(6-((4-((1-(4-(1-((4-(6-aminopyridin-3-yl)-1-methyl-1H-pyrrolo[2,3-b]pyridin-2-yl)methyl)piperidin-4-yl)benzoyl)piperidin-4-yl)methyl)piperazin-1-yl)methyl)-2-oxobenzo[d]oxazol-3 (2H)-yl)piperidine-2,6-dione], the Emax was in the range of 60 to 70%.
